Laboratory results published in ChEMBL document CHEMBL4304811, “Development of a Water-Soluble Indolylmaleimide Derivative IM-93 Showing Dual Inhibition of Ferroptosis and NETosis” (ACS Med Chem Lett, 2019).

Assays:
[1] = target: RAC-alpha serine/threonine-protein kinase (Homo sapiens) (UniProt P31749); test: Binding affinity to wild-type human partial length AKT1 expressed in bacterial expression system assessed as residual binding level at 10 uM by Kinomescan method relative to control
[2] = system: ALK tyrosine kinase receptor (Homo sapiens), Q9UM73 [L1196M]; test: Binding affinity to […] human partial length ALK L1196M mutant (I1088 to E1409 residues) expressed in mammalian expression system assessed as residual binding level at 10 uM by Kinomescan method relative to control
[3] = target: Cyclin-dependent kinase 11A (Homo sapiens) (UniProt Q9UQ88); test: Binding affinity to wild-type human partial length CDC2L2 (D391 to K730 residues) expressed in bacterial expression system assessed as residual binding level at 10 uM by Kinomescan method relative to control
[4] = target: Cyclin-dependent kinase 7 (Homo sapiens) (UniProt P50613); test: Binding affinity to wild-type human full length CDK7 (M1 to L344 residues) expressed in mammalian expression system assessed as residual binding level at 10 uM by Kinomescan method relative to control
[5] = target: Macrophage colony-stimulating factor 1 receptor (Homo sapiens) (UniProt P07333); test: Binding affinity to wild-type human partial length CSF1R (I564 to S939 residues) expressed in bacterial expression system assessed as residual binding level at 10 uM by Kinomescan method relative to control
Chain of Macrophage colony-stimulating factor 1 receptor (Homo sapiens) (P07333 whole entry, the tested form may be a part, canonical isoform): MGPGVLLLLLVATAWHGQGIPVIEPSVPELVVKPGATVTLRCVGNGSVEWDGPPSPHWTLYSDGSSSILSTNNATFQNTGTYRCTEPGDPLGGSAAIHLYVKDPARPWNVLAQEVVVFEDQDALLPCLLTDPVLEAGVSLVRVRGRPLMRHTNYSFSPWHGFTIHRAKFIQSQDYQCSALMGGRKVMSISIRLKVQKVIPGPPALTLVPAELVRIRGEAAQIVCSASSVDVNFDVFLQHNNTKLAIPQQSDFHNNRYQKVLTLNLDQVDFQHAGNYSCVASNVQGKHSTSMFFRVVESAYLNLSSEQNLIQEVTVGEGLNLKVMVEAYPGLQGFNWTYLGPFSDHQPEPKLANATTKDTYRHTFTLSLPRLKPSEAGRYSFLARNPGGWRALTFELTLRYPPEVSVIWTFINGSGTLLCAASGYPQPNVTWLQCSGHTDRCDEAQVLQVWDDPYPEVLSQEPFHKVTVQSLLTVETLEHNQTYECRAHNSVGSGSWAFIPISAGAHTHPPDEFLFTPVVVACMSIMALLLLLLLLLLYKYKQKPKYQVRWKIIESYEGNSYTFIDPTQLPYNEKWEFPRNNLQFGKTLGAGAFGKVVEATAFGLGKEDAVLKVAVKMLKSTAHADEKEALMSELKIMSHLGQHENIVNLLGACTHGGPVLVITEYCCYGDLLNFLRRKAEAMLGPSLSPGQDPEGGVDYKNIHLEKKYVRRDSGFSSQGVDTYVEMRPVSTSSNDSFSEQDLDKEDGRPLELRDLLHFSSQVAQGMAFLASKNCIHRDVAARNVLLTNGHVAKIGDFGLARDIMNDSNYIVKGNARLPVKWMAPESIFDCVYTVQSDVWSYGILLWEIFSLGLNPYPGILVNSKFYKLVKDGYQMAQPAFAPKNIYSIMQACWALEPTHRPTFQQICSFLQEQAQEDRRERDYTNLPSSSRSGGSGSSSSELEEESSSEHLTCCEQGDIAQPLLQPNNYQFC

[6] = target: Casein kinase I isoform gamma-3 (Homo sapiens) (UniProt Q9Y6M4); test: Binding affinity to wild-type human full length CSNK1G3 (M1 to K447 residues) expressed in bacterial expression system assessed as residual binding level at 10 uM by Kinomescan method relative to control
[7] = target: Death-associated protein kinase 1 (Homo sapiens) (UniProt P53355); test: Binding affinity to wild-type human partial length DAPK1 (M1 to F296 residues) expressed in bacterial expression system assessed as residual binding level at 10 uM by Kinomescan method relative to control
[8] = target: Discoidin domain-containing receptor 2 (Homo sapiens) (UniProt Q16832); test: Binding affinity to wild-type human partial length DDR2 (V555 to E855 residues) expressed in mammalian expression system assessed as residual binding level at 10 uM by Kinomescan method relative to control
Chain of Discoidin domain-containing receptor 2 (Homo sapiens) (Q16832 whole entry, the tested form may be a part): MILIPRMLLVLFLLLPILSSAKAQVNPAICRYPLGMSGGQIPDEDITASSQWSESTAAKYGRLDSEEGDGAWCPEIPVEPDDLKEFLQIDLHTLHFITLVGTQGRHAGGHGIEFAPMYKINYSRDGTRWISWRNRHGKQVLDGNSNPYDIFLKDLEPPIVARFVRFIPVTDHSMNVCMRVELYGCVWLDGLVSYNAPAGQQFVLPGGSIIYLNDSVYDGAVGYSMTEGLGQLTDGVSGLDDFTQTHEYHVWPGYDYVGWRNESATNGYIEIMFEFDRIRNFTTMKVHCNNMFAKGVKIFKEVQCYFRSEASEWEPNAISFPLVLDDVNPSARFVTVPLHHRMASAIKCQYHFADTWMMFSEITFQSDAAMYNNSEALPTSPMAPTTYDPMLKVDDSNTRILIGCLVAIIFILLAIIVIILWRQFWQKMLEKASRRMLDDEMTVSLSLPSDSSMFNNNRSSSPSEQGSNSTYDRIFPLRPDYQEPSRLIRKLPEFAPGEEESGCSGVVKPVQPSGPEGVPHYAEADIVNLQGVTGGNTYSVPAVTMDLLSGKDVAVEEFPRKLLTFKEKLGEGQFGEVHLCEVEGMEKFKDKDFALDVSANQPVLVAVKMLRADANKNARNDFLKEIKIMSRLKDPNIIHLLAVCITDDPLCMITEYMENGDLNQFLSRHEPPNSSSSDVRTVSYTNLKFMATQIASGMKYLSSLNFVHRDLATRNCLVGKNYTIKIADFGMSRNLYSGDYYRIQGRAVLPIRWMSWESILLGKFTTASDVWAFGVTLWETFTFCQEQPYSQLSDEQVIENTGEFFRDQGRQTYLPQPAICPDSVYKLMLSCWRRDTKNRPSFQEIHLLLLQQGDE

[9] = system: Epidermal growth factor receptor (Homo sapiens), P00533 [UNDEFINED MUTATION]; test: Binding affinity to human partial length EGFR E746-A750del mutant expressed in bacterial expression system assessed as residual binding level at 10 uM by Kinomescan method relative to control
[10] = target: Tyrosine-protein kinase FRK (Homo sapiens) (UniProt P42685); test: Binding affinity to wild-type human partial length FRK (A215 to F503 residues) expressed in bacterial expression system assessed as residual binding level at 10 uM by Kinomescan method relative to control
[11] = target: Tyrosine-protein kinase JAK1 (Homo sapiens) (UniProt P23458); test: Binding affinity to wild-type human partial length JAK1 JH1 catalytic domain (V856 to K1154 residues) expressed in bacterial expression system assessed as residual binding level at 10 uM by Kinomescan method relative to control
[12] = target: Mitogen-activated protein kinase kinase kinase 1 (Homo sapiens) (UniProt Q13233); test: Binding affinity to wild-type human partial length MAP3K1 (L1202 to W1512 residues) expressed in mammalian expression system assessed as residual binding level at 10 uM by Kinomescan method relative to control
[13] = target: Mitogen-activated protein kinase kinase kinase kinase 2 (Homo sapiens) (UniProt Q12851); test: Binding affinity to wild-type human partial length MAP4K2 (M1 to G318 residues) expressed in mammalian expression system assessed as residual binding level at 10 uM by Kinomescan method relative to control
[14] = target: MAP kinase-activated protein kinase 5 (Homo sapiens) (UniProt Q8IW41); test: Binding affinity to wild-type human partial length MAPKAPK5 (M1 to D322 residues) expressed in mammalian expression system assessed as residual binding level at 10 uM by Kinomescan method relative to control
[15] = target: MAP kinase-interacting serine/threonine-protein kinase 1 (Homo sapiens) (UniProt Q9BUB5); test: Binding affinity to wild-type human full length MKNK1 (M1 to L424 residues) expressed in mammalian expression system assessed as residual binding level at 10 uM by Kinomescan method relative to control
[16] = target: Mitogen-activated protein kinase kinase kinase 11 (Homo sapiens) (UniProt Q16584); test: Binding affinity to wild-type human partial length MLK3 (I77 to W399 residues) expressed in bacterial expression system assessed as residual binding level at 10 uM by Kinomescan method relative to control
[17] = target: Serine/threonine-protein kinase PAK 2 (Homo sapiens) (UniProt Q13177); test: Binding affinity to wild-type human partial length PAK2 (P151 to R525 residues) expressed in bacterial expression system assessed as residual binding level at 10 uM by Kinomescan method relative to control
Chain of Serine/threonine-protein kinase PAK 2 (Homo sapiens) (Q13177 whole entry, the tested form may be a part): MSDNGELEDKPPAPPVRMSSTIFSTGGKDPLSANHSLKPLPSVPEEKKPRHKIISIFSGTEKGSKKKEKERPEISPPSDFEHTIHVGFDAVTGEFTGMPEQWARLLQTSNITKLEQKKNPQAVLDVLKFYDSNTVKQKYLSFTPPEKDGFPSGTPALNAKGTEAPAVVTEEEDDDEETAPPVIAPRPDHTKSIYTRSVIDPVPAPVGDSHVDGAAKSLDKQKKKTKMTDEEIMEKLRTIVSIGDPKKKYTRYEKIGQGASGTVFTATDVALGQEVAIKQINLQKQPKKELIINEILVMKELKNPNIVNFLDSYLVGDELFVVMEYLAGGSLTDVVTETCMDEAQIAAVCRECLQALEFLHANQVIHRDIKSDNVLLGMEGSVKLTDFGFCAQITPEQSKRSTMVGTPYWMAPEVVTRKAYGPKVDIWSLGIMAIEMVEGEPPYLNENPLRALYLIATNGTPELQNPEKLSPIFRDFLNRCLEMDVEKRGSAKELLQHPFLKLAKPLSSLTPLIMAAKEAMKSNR

[18] = target: Cyclin-dependent kinase 15 (Homo sapiens) (UniProt Q96Q40); test: Binding affinity to wild-type human full length PFTAIRE2 (M1 to W384 residues) expressed in bacterial expression system assessed as residual binding level at 10 uM by Kinomescan method relative to control
[19] = target: Serine/threonine-protein kinase D1 (Homo sapiens) (UniProt Q15139); test: Binding affinity to wild-type human partial length PRKD1 (G551 to E870 residues) expressed in bacterial expression system assessed as residual binding level at 10 uM by Kinomescan method relative to control
Chain of Serine/threonine-protein kinase D1 (Homo sapiens) (Q15139 whole entry, the tested form may be a part): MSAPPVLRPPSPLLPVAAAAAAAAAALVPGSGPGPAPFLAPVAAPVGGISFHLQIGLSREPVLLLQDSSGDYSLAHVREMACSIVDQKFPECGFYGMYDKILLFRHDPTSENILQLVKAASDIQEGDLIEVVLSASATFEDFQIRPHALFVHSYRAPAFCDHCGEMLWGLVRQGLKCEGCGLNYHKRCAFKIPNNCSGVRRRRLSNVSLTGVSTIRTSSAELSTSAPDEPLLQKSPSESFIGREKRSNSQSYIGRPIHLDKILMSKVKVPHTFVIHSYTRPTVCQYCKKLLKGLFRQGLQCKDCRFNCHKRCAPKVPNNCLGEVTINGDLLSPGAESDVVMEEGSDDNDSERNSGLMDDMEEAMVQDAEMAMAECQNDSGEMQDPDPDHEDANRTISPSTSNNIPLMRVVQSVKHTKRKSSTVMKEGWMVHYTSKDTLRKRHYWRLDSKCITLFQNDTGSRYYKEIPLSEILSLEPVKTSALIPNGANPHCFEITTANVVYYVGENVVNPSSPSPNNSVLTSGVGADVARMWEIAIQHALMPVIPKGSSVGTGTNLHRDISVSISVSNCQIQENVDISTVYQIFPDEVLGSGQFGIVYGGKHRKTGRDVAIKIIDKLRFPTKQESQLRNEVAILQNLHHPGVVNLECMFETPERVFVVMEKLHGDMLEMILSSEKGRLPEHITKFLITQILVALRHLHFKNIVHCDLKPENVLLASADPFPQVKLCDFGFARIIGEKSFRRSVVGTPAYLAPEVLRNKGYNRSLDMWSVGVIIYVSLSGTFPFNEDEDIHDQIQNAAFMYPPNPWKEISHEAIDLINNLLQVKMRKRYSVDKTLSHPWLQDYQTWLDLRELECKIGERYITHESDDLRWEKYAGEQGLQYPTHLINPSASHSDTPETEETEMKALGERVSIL

[20] = target: Serine/threonine-protein kinase D3 (Homo sapiens) (UniProt O94806); test: Binding affinity to wild-type human partial length PRKD3 (S543 to E863 residues) expressed in bacterial expression system assessed as residual binding level at 10 uM by Kinomescan method relative to control
[21] = target: Tyrosine-protein kinase TXK (Homo sapiens) (UniProt P42681); test: Binding affinity to wild-type human partial length TXK (L238 to W527 residues) expressed in bacterial expression system assessed as residual binding level at 10 uM by Kinomescan method relative to control
[22] = target: Serine/threonine-protein kinase VRK2 (Homo sapiens) (UniProt Q86Y07); test: Binding affinity to wild-type human partial length VRK2 (M1 to T336 residues) expressed in mammalian expression system assessed as residual binding level at 10 uM by Kinomescan method relative to control
Chain of Serine/threonine-protein kinase VRK2 (Homo sapiens) (Q86Y07 whole entry, the tested form may be a part): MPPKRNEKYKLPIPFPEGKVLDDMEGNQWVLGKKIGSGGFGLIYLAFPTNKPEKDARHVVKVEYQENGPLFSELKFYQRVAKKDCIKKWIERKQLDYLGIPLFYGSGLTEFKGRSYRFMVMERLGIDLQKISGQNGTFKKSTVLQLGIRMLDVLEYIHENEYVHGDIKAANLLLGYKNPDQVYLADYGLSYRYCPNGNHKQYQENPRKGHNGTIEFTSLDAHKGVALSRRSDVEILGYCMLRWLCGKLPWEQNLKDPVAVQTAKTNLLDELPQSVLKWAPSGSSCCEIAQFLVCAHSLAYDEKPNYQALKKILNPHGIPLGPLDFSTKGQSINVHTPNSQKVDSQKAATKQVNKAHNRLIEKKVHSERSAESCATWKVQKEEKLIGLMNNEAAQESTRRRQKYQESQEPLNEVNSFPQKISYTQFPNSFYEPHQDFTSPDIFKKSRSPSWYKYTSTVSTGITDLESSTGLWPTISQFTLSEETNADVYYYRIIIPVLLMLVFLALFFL

[23] = target: Serine/threonine-protein kinase 32C (Homo sapiens) (UniProt Q86UX6); test: Binding affinity to wild-type human partial length YANK3 (M68 to G486 residues) expressed in bacterial expression system assessed as residual binding level at 10 uM by Kinomescan method relative to control
Chain of Serine/threonine-protein kinase 32C (Homo sapiens) (Q86UX6 whole entry, the tested form may be a part): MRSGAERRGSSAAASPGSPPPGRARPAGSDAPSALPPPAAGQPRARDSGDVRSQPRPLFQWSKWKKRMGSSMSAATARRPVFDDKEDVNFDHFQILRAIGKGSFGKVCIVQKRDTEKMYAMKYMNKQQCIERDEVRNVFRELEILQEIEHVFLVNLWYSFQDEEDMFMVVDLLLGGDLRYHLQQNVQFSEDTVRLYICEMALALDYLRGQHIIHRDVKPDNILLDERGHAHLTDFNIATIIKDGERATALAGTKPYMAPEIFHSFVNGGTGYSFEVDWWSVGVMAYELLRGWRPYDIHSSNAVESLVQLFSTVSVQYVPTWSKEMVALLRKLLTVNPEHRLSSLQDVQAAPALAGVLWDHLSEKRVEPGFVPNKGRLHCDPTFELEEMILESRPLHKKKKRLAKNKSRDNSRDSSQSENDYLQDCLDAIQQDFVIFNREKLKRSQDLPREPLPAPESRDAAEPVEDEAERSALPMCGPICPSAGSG

[24] = Stability of compound in D2O at 0.012 mmol followed by H2O2 addition measured after 2 hrs by 1H-NMR spectroscopy; assay type: physicochemical
[25] = Stability of compound in D2O at 0.012 mmol followed by TBHP addition measured after 24 hrs by 1H-NMR spectroscopy; assay type: physicochemical

Chain of RAC-alpha serine/threonine-protein kinase (Homo sapiens) (P31749 whole entry, the tested form may be a part): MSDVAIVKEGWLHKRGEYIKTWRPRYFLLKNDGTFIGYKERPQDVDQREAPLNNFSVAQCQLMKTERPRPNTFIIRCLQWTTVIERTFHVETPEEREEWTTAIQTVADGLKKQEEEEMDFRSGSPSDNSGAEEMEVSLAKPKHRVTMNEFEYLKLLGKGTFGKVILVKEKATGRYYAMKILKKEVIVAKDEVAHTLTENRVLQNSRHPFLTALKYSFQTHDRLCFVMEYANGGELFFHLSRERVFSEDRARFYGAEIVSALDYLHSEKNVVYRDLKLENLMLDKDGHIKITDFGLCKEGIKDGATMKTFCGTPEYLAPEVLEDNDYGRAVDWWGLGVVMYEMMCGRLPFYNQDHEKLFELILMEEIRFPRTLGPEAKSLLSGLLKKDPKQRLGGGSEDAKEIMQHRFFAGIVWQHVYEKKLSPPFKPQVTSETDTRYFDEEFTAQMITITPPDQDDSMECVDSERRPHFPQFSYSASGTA

## CC(C)N1C(=O)C(NCCCN(C)C)=C(c2cn(C)c3ccccc23)C1=O.Cl
[1]
  Activity: 95%
[2]
  Activity: 90%
[3]
  Activity: 96%
[4]
  Activity: 80%
[5]
  Activity: 97%
[6]
  Activity: 96%
[7]
  Activity: 100%
[8]
  Activity: 100%
[9]
  Activity: 100%
[10]
  Activity: 100%
[11]
  Activity: 89%
[12]
  Activity: 68%
[13]
  Activity: 85%
[14]
  Activity: 71%
[15]
  Activity: 100%
[16]
  Activity: 91%
[17]
  Activity: 100%
[18]
  Activity: 99%
[19]
  Activity: 96%
[20]
  Activity: 91%
[21]
  Activity: 88%
[22]
  Activity: 95%
[23]
  Activity: 98%
[24]
  Stability: Stable
[25]
  Stability: Stable
